Where only a bound is given, the exact number is not on record here.

This test concerns the target T1, human CaSR (Homo sapiens, UniProt P41180).
T1 sequence (P41180 20-1078): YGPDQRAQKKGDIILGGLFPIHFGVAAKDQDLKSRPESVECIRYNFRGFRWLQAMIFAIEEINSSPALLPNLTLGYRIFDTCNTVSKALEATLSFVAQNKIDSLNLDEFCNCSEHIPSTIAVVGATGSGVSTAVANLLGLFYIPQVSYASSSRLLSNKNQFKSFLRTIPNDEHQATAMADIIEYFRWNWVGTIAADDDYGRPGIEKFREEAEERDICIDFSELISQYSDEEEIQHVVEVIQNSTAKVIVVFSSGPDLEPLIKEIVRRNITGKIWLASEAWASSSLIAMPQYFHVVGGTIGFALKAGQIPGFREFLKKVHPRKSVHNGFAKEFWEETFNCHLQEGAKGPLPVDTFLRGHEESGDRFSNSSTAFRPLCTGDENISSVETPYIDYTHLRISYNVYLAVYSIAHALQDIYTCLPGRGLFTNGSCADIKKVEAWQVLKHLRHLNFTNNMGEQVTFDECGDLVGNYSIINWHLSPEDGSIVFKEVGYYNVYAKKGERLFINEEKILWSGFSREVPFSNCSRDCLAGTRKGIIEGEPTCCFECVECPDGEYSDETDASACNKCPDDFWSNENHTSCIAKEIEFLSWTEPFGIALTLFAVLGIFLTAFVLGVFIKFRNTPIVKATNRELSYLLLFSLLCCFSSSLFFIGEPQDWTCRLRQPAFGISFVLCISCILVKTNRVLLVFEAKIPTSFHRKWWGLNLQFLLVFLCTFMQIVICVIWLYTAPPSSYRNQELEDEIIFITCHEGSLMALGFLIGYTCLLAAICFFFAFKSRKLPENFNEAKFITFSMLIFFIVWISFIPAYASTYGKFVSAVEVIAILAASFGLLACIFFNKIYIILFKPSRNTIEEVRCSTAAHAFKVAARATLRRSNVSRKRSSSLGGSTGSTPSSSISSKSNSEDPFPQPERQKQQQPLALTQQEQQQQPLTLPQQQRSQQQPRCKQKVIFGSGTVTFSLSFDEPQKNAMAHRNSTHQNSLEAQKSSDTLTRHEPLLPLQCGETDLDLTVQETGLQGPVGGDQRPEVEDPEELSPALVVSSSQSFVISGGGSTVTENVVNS
As to the kind of experiment: Functional whole cell assay (modulation of human CaSR), IP1 accumulation in CHO-K1 cells. Type of test: cell-based. The settings on record: CHO-K1 cells stably expressing human CaSR, final Ca2+ 1.9 mM, IP1 HTRF; concentration giving 50% of maximum agonistic response. From the text: The assay investigates a compound's functional ability to act as a biological positive modulator on the human CaSR. Activation of the receptor expressed on CHO-K1 cells is detected through the G alpha q pathway, the activation of phospholipase C and the accumulation of intracellular inositol phosphate (IP) as described earlier [Sandrine Ferry, Bruno Chatel, Robert H. Dodd, Christine Lair, Danielle Gully, Jean-Pierre Maffrand, and Martial Ruat. Effects of Divalent Cations and of a Calcimimetic on Adrenocorticotropic Hormone Release in Pituitary Tumor Cells. Biochemical and biophysical research Communications 238, 866-873 (1997)]. The human CaSR is stably expressed on a CHO-K1 cell clone, stimulated with a basal level of calcium and challenged with the tested compound. The level of IP1 is determined using the IP-One Terbium htrf kit (Cisbio, France). CHO-K1 cells not transfected with the CaSR fail to elicit an IP1 response upon calcium and/or compound stimulation.
The ORF coding for the human CaSR (genebank: NM_000388) was acquired from Invitrogen Corp, USA and subsequently cloned into the mammalian expression vector pCDA3.1.
CHO-K1 cells were transfected using Lipofectamine according to manufacturer's protocol (400.000 cells/well were seeded in a 6-well plate and transfected after 24 hours using 2 μg DNA and 5 μl lipofectamine). After another 24 hours the cells were detached, seeded and subjected to 1 mg/ml of G-418. Following 7 days growth single clones were picked, the CaSR expression evaluated using the 5C10 antibody against CaSR, the clones with the highest expression were selected and tested for functional response. The preferred clone was cultured according to standard procedures described in ATCC (American Type Culture Collection) protocols for CHO-K1 with the addition of 500 μg/ml G-418.
On the assay day, cells were thawed, harvested and resuspended to 4*10^6 cells/ml in stimulation buffer (containing: Hepes 10 mM, MgCl2 0.5 mM, KCl 4.2 mM, NaCl 146 mM, glucose 5.5 mM, LiCl 50 mM, BSA 0.5% at pH 7.4). Ten μl cell solution was pipetted into wells of a white 384-well plate (Perkin Elmer Optiplate) containing 2 μl compound diluted in assay buffer (containing: Hepes 10 mM, MgCl2 0.5 mM, KCl 4.2 mM, NaCl 146 mM, glucose 5.5 mM, LiCl 50 mM, CaCl2 11.4 mM at pH 7.4), resulting in a final Ca^2+ concentration of 1.9 mM. After compound stimulation for 1 hour at 37° C. and 15 min at room temperature, 10 ul of IP-One assay detection reagent (prepared as described by the IP-One assay kit manufacturer) was added and the plate was incubated for another 1 hour at room temperature. Finally the plate was read using a Perkin Elmer EnVision, according to the protocol supplied by the IP-One assay kit manufacturer. The FRET ratio was calculated by dividing the 665 nm emission signal with that of the 615 nm.
The molar concentration of a compound that produces 50% of the maximum agonistic response (the […] value) is calculated according to the equation “General sigmoidal curve with Hill slope, a to d” (Equation 1). This model describes a sigmoidal curve with an adjustable baseline. The equation can be used to fit curves where response is either increasing or decreasing with respect to the independent variable, X.
y=(a−d)/(1+(x/c)̂b)+d Equation 1.
A general note: TR-FRET usually uses a lanthanide donor and a delayed reading to cut background.
As usually defined, the EC50 is the concentration that produces a half-maximal response. Low readings indicate a more potent agent, high ones a less potent agent. Regarding `COc1cc([C@@H](C)N[C@H]2CC[C@@H](c3ccc(C(=O)NCCNC(=O)c4nc[nH]n4)cc3)C2)ccc1F` [Compound 101, N-[2-[[4-[(1R,3S)-3-[[(1R)-1-(4-Fluoro-3-methoxy-phenyl)ethyl]-amino]cyclopentyl]benzoyl]amino]ethyl]-1H-1,2,4-triazole-3-carboxamide], the EC50 was less than 200 nM.
In the case of `COc1cc([C@@H](C)N[C@H]2CC[C@@H](c3ccc(C(=O)NCCNC(=O)C(O)CO)cc3)C2)ccc1F` (stereo partly drawn) [Compound 102, N-[2-(2,3-Dihydroxypropanoylamino)ethyl]-4-[(1R,3S)-3-[[(1R)-1-(4-fluoro-3-methoxy-phenyl)ethyl]amino]cyclopentyl]benzamide] it was 200 to 1000 nM.
In the case of `COc1cc([C@@H](C)N[C@H]2CC[C@@H](c3ccc(C(=O)NCCNC(=O)CO)cc3)C2)ccc1F` [Compound 103, 4-[(1R,3S)-3-[[(1R)-1-(4-Fluoro-3-methoxy-phenyl)ethyl]amino]cyclopentyl]-N-[2-[(2-hydroxyacetyl)amino]ethyl]benzamide] it was less than 200 nM; in that of `COc1cc([C@@H](C)N[C@H]2CC[C@@H](c3ccc(C(=O)NCCNC(=O)C(N)=O)cc3)C2)ccc1F` [Compound 104, N-[2-[[4-[(1R,3S)-3-[[(1R)-1-(4-Fluoro-3-methoxy-phenyl)ethyl]amino]cyclopentyl]benzoyl]amino]ethyl]oxamide], less than 200 nM.
Take `COc1cc([C@@H](C)N[C@H]2CC[C@@H](c3ccc(C(=O)NCCNC(=O)CS(C)(=O)=O)cc3)C2)ccc1F` [Compound 105, 4-[(1R,3S)-3-[[(1R)-1-(4-Fluoro-3-methoxy-phenyl)ethyl]amino]-cyclopentyl]-N-[2-[(2-methylsulfonylacetyl)amino]ethyl]benzamide]: the EC50 is less than 200 nM.

For the origin of these results see US20130245084A1, “CALCIUM-SENSING RECEPTOR-ACTIVE COMPOUNDS” (LEO PHARMA A/S, priority 2010, published 2013).
